What was measured:
Type in all cases: cell-based
human AT2 receptor = molecular target: T1, human AT2 receptor (Homo sapiens, UniProt P50052); assay: Aequorin bioluminescence intracellular calcium assay, CHO-AEQ-AT2 cells; details: CHO-AEQ cells expressing AT2; samples 100 μg/ml; compared with angiotensin II; FIG. 19
T1 construct: pcDNA3.1+ plasmid DNA into which had been inserted the coding region for human AT1, AT2, or ETB receptor; expressed in transfected cells; host or cells: CHO-AEQ (Chinese hamster ovary cells stably expressing aequorin), transient transfection with Fugene HD
T1 sequence (P50052 1-363): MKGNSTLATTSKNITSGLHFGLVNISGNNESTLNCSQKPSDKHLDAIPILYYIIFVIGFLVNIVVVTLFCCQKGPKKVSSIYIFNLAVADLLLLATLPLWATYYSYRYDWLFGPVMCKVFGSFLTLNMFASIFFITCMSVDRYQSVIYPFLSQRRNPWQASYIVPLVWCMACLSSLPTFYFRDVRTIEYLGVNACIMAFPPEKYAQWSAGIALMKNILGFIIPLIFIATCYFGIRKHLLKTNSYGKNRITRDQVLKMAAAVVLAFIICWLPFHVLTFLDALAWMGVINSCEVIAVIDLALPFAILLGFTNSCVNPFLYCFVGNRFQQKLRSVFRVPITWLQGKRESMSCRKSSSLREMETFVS
Experimental: (§1) To investigate the vasculoprotective, neuroprotective, and/or antihypertensive properties of Cecropia extracts, Chinese hamster ovary cells that had been stably transfected with aequorin (CHO-AEQ cells) were transiently transfected with various G-protein coupled receptors.
(§2) More particularly, CHO-AEQ cells were cultured in Dulbecco's Modified Eagle's Medium (DMEM) containing 10% fetal bovine serum as previously described (Vanderheyden et al., 126 Br J Pharmacol 1057-1065 (1999)). At 75% confluency, these cells were transiently transfected with pcDNA3.1+ plasmid DNA into which had been inserted the coding region for human AT1, AT2, or ETB receptor. The transient transfection was performed with Fugene HD® following the manufacturers' instructions (2 μg DNA to 7 μl Fugene HD® in Opti-MEM® medium. After transfection, the cells were cultured for an additional day, after which they were harvested and loaded with coelenterazine-h.
(§3) Intracellular calcium can be detected based on the interaction of calcium ions with the calcium binding bioluminescent complex aequorin. Upon calcium binding, aequorin oxidizes coelenterazine-h into coelenteramide with production of CO2 and emission of light (466 nm) (Le Poul et al., 7 J Biomol Screen 57-65 (2002). The CHO-AEQ cells that had been transiently transfected with human AT1, human AT2 or human ETB receptors were used in a bioluminescence assay to evaluate whether—and to what extent—material isolated from Cecropia obtusifolia could perturb G-protein coupled receptor(s).
(§4) Confluent CHO-AEQ cells that were grown and transfected in 75 cm^2 culture flasks were harvested by a brief treatment with a trypsin/EDTA solution, centrifuged, and resuspended in DMEM-F12 cell culture medium containing 0.1% BSA and denoted as assay buffer, at a cell density of 2.5×10^6 cells/ml. Subsequently, coelenterazine-h was added to the cell suspension to a final concentration of 5 μM. Cells were then incubated between 14 h and 18 h at room temperature in the dark under gentle shaking. After this loading step, 15 ml of assay buffer was added to the cells and then centrifuged for 7 min at 1100 rpm in a swinging bucket centrifuge. The resulting cell pellets were gently resuspended in assay buffer containing 1 μM coelenterazine-h at a cell density of 5×10^5 cells/ml. After a further incubation of 1.5 h at room temperature, the cell suspension was distributed at 100 μl/well in white Cellstar 96-well plates.
To assess the activity of the compounds derived from Cecropia obtusifolia extracts, lyophilized crude extract (and compounds that had been identified in the extract) were dissolved in DMSO at 1 mg/ml, and then further diluted in assay buffer to 100 μg/ml (final concentration) (Caballero-George et al., 4 Curr. Trends Biotechnol Pharm 881-899 (2010)). A […] was then added to each well containing the transiently transfected cells. For comparison, control peptides were diluted in assay buffer to a final concentration of 0.1 μM angiotensin II or 10 nM endothelin-1. These control peptides are known to cause a transient rise in cytosolic calcium. The agonist solutions were loaded in the cell injector of a Victor spectrophotometer, and a 96-well plate was inserted.
(§5) Measurements were initiated by injecting 50 μl solution/well, and the bioluminescence was recorded every 200 ms for 120 cycles. To account for slight variations in cell number, a final concentration of 10 μM ATP was added by a second injector to the cells (50 μl/well) and the resulting response was measured.
The effects were quantified by calculation of the area under the curves by integration of the obtained transient responses using GraphPad Prism 5™. The activation of the AT1, AT2, or ETB receptors was expressed as a fractional response. This is obtained by dividing the agonist response by the sum of the agonist and ATP response for each well (i.e., agonist response/(ATP+agonist response)). […]

human AT1 receptor = molecular target: T2, human AT1 receptor (Homo sapiens, UniProt P30556); assay: Aequorin bioluminescence intracellular calcium assay, CHO-AEQ-AT1 cells (inhibition of angiotensin II); details: CHO-AEQ cells expressing AT1; 100 nM angiotensin II; samples 100 μg/ml; compared with losartan; FIG. 21
T2 construct: pcDNA3.1+ plasmid DNA into which had been inserted the coding region for human AT1, AT2, or ETB receptor; expressed in transfected cells; host or cells: CHO-AEQ (Chinese hamster ovary cells stably expressing aequorin), transient transfection with Fugene HD
T2 sequence (P30556 1-359): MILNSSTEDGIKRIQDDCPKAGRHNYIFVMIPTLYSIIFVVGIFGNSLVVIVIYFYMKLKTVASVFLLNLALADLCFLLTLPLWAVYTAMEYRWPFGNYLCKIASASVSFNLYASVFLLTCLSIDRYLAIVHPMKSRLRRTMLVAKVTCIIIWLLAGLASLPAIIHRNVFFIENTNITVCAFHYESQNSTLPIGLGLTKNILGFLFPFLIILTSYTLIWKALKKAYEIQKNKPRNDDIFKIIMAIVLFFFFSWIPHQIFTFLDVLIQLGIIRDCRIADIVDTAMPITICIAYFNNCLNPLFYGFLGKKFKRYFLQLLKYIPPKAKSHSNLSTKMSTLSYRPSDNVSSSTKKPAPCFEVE
Experimental: as §1, §2, §3, §4
To assess the activity of the compounds derived from Cecropia obtusifolia extracts, lyophilized crude extract (and compounds that had been identified in the extract) were dissolved in DMSO at 1 mg/ml, and then further diluted in assay buffer to 100 μg/ml (final concentration) (Caballero-George et al., 4 Curr. Trends Biotechnol Pharm 881-899 (2010)). A […] was then added to each well containing the transiently transfected cells. […]
as §5
(§6) The effects were quantified by calculation of the area under the curves by integration of the obtained transient responses using GraphPad Prism 5™. The activation of the AT1, AT2, or ETB receptors was expressed as a fractional response. […]

human ETB receptor = molecular target: T3, human ETB receptor (Homo sapiens, UniProt P24530); assay: Aequorin bioluminescence intracellular calcium assay, CHO-AEQ-ETB cells; details: CHO-AEQ cells expressing ETB; samples 100 μg/ml; compared with 100 nM endothelin 1; FIG. 20
T3 construct: pcDNA3.1+ plasmid DNA into which had been inserted the coding region for human AT1, AT2, or ETB receptor; expressed in transfected cells; host or cells: CHO-AEQ (Chinese hamster ovary cells stably expressing aequorin), transient transfection with Fugene HD
T3 sequence (P24530 27-442): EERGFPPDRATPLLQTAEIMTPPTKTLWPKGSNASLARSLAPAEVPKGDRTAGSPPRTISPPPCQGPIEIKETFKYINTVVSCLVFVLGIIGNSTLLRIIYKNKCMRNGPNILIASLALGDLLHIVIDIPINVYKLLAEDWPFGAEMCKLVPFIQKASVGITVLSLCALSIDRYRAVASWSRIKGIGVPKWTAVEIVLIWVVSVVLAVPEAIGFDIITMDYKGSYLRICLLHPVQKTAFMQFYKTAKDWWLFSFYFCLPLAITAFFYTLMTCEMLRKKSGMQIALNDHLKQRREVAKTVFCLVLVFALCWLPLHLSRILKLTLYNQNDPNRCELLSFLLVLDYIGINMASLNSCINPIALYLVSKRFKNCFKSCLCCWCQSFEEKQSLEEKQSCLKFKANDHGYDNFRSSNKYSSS
Experimental: as §1
More particularly, CHO-AEQ cells were cultured in Dulbecco's Modified Eagle's Medium (DMEM) containing 10% fetal bovine serum as previously described (Vanderheyden et al., 126 Br J Pharmacol 1057-1065 (1999)). At 75% confluency, these cells were transiently transfected with pcDNA3.1+ plasmid DNA into which had been inserted the coding region for human AT1, AT2, or ETB receptor. […]
Intracellular calcium can be detected based on the interaction of calcium ions with the calcium binding bioluminescent complex aequorin. […]
as §5, §6

Row | Molecule | activation of the AT2 receptor (cytoplasmic calcium release) (human AT2 receptor) | inhibition of the agonistic effect of angiotensin II on the AT1 receptor (human AT1 receptor) | cytoplasmic calcium release after binding to the ETB receptors (human ETB receptor)
1 | O=C(/C=C/c1ccc(O)c(O)c1)O[C@@H]1C[C@](O)(C(=O)O)C[C@@H](O)[C@H]1O [Compound P2, chlorogenic acid] | approximately half of the activity of the extract | less than half of the effect of Fraction 3-4 | –
2 | O=c1cc(-c2ccc(O)c(O)c2)oc2cc(O)c(C3OC(CO)C(O)C(O)C3OC3OCC(O)C(O)C3O)c(O)c12 (stereo not drawn) [Compound P4, isoorientin-2″-O-xyloside] | approximately half of the activity of the extract | less than half of the effect of Fraction 3-4 | –
3 | O=c1cc(-c2ccc(O)cc2)oc2cc(O)c(C3OC(CO)C(O)C(O)C3OC3OC(CO)C(O)C(O)C3O)c(O)c12 (stereo not drawn) [Compound P7, isovitexin-2″-O-glucoside] | approximately half of the activity of the extract | less than half of the effect of Fraction 3-4 | –
4 | O=c1cc(-c2ccc(O)cc2)oc2cc(O)c(C3OC(CO)C(O)C(O)C3OC3OCC(O)C(O)C3O)c(O)c12 (stereo not drawn) [Compound P8, isovitexin-2″-O-xyloside] | approximately half of the activity of the extract | less than half of the effect of Fraction 3-4 | –
5 | CC1OC(OC2C(c3c(O)cc4oc(-c5ccc(O)cc5)cc(=O)c4c3O)OC(CO)C(O)C2O)C(O)C(O)C1O (stereo not drawn) [Compound P9, isovitexin-2″-O-rhamnoside] | approximately half of the activity of the extract | less than half of the effect of Fraction 3-4 | –
6 | isovitexin-O-xyloside [Compound P6] | approximately half of the activity of the extract | – | the most active sample tested
